# Values quoted from earlier work in patent US20250333373A1, “L-2-Amino-4-Halobutyric Acid Derivative-L-Tartrate and Preparation Method Thereof” (Vulpes Agricultural Corp., priority 2022, published 2025).
# Conditions: for herbicidal effect: isomers of racemic glufosinate
SMILES,herbicidal effect,herbicidal activity relative to common glufosinate (versus common (racemic) glufosinate)
CP(=O)(O)CC[C@@H](N)C(=O)O [D],almost inactive,–
CP(=O)(O)CC[C@H](N)C(=O)O [L-glufosinate],has an herbicidal effect,twice
